US5892018A, “DNA sequences encoding a brain sodium channel protein” (priority 1997, dated 1999)
Ends that are not written are not given here.

Target: T1, BNC1 (Homo sapiens, UniProt Q16515)
T1 construct: a 1539-bp open reading frame extending to the 3' stop codon; expressed in transfected cells; host or cells: Xenopus laevis oocytes, nuclear injection of BNC1 cDNA in pMT3
T1 sequence (Q16515 1-512 T495A): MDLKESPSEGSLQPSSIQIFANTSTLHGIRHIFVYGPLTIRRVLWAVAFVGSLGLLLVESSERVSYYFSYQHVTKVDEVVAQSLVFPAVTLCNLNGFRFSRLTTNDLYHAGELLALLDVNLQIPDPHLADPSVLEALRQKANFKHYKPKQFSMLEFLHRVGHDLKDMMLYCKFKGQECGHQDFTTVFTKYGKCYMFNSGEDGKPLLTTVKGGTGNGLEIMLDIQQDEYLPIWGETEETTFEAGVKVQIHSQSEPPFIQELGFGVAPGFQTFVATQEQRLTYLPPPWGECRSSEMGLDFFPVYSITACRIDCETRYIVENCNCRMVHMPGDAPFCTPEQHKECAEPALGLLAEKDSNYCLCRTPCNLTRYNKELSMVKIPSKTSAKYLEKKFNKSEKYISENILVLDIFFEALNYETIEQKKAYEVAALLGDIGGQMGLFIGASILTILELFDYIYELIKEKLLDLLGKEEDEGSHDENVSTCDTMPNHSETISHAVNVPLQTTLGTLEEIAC
Experiment: Two-electrode voltage clamp of Xenopus oocytes expressing BNC1
Type: cell-based
Conditions: for activation of BNC1 current by agonist peptide: peptide added to bathing solution at 1-30 μM
Method: Expression of BNC1 in Xenopus laevis Oocytes--BNC1 was expressed in Xenopus oocytes by nuclear injection of BNC1 cDNA cloned into pMT3 (0.2-0.3 ng). Control oocytes were injected with H2 O. α-, β-, and γhENaC (αβγhENaC) were expressed as described previously. Oocytes were maintained at 18° C. in modified Barth's solution, and current was measured by two-electrode voltage clamp 1 day after injection. During voltage clamp, oocytes were bathed in 116 mM NaCl, 2 mM KCl, 0.4 mM CaCl2, 1 mM Mg Cl2, 5 mM Hepes (pH 7.4 with NaOH). To determine ionic selectivity, NaCl was replaced with LiCl or KCl. Current-voltage relationships were determined by stepping from a holding potential of -60 mV to potentials between -100 and +40 mV for 1 second. Amiloride-sensitive current was obtained by subtracting current during exposure to a maximal concentration of amiloride (100 μM) from current prior to amiloride addition. Phe-Met-Arg-Phe-NH2 (FMRF-am-ide), Phe-Leu-Phe-Gln-Pro-Gln-Arg-Phe-NH2 (F-8-F-amide), and Ala-Gly-Glu-Gly-Leu-Ser-Ser-Pro-Phe-Trp-Ser-Leu-Ala-Ala-Pro-Gln-Arg-Phe-NH2 (A-18-F-amide) were obtained from Sigma and were added to the bathing solution at 1-30 μM.

Row | Compound | IC50 (BNC1 expressed in Xenopus oocytes, plotted as fraction of response to 100 μM amiloride, n=4 (FIG. 8), read-out: half-maximal inhibition of Na+ current) [nM] | inward current reversibly inhibited by amiloride (amiloride-sensitive current) (BNC1 in Xenopus oocytes, holding potential -60 mV, amiloride 100 μM, n=12 (FIG. 6)) [nA] | activation of BNC1 current by agonist peptide (BNC1 in Xenopus oocytes)
1 | N=C(N)NC(=O)c1nc(Cl)c(N)nc1N [amiloride] | 147 ± 23 | 14.0±2.7 | –
2 | CC(C)C[C@H](NC(=O)[C@@H](N)Cc1ccccc1)C(=O)N[C@@H](Cc1ccccc1)C(=O)N[C@@H](CCC(N)=O)C(=O)N1CCC[C@H]1C(=O)N[C@@H](CCC(N)=O)C(=O)N[C@@H](CCCNC(=N)N)C(=O)N[C@@H](Cc1ccccc1)C(N)=O [F-8-F-amide, Phe-Leu-Phe-Gln-Pro-Gln-Arg-Phe-NH2] | – | – | not activated
3 | Ala-Gly-Glu-Gly-Leu-Ser-Ser-Pro-Phe-Trp-Ser-Leu-Ala-Ala-Pro-Gln-Arg-Phe-NH2 (AGEGLSSPFWSLAAPQRF-NH2) [A-18-F-amide, related mammalian peptide, obtained from Sigma] | – | – | not activated
